Source: article PMC4497601 (Angewandte Chemie (International Ed. in English), 2014)
Entries after “also recorded” stand apart in the source; their conditions may differ. Each block holds one compound with its values, some of them ahead of it.

How the values were obtained:
Hsp90 ATP binding site = Hsp90 ATP binding site (Homo sapiens, UniProt P07900); assay: LLS screening in competition mode; details: Δ=2.5 s; for binding to Hsp90 in LLS competition screening of mixtures: 500 μM spy ligand II, 2.5 μM Hsp90, 600 μM of each ligand
[1] = biological target: N-terminal ATPase domain of heat shock protein 90 (Hsp90) (Homo sapiens, UniProt P07900); assay: LLS NMR direct titration of ligand against Hsp90; type: binding
Hsp90 [2] = details: read-out: KD ITC; cited from earlier work
Hsp90 [3] = details: cited from earlier work

- binding to Hsp90 in LLS competition screening of mixtures (Hsp90 ATP binding site): nonbinding
SMILES: NCc1ccc(F)c(F)c1 [3,4-difluorobenzylamine]

- binding to Hsp90 in LLS competition screening of mixtures (Hsp90 ATP binding site): nonbinding
SMILES: N=C(N)c1ccc(C(F)(F)F)cc1 [4-trifluoromethylbenzamidine]

SMILES: CC(C)c1cc(C(=O)N2Cc3ccc(CN4CCN(C)CC4)cc3C2)c(O)cc1O [AT13387]
- LLS signal of spy ligand II on addition of competitor (Hsp90 ATP binding site; 500 μM ligand II, 10 μM Hsp90, 10 μM competitor): almost completely restored; also recorded: partly restored

- Kd [1]: 15 ± 10 µM
- RLLS bound ([1]; bound ligand, fitted from direct titration with 10 μM Hsp90): 77 ± 6 s⁻¹
- RLLS free ([1]; free ligand): 731±7 ms^−1
SMILES: Nc1ncnc2c1ncn2[C@@H]1O[C@H](COP(=O)(O)OP(=O)(O)O)[C@@H](O)[C@H]1O [Ligand I, Adenosine diphosphate]
- Kd (Hsp90 [2]): 10 µM

SMILES: Nc1ncccn1 [Ligand III, 2-aminopyrimidine]
- Kd (Hsp90 [2]): > 1000 µM

- binding to Hsp90 in LLS competition screening of mixtures (Hsp90 ATP binding site): weakly binding
SMILES: Cc1cnc(N)c(Br)c1 [Ligand V, 3-bromo-5-methylpyridin-2-ylamine]
- binding to Hsp90 identified by fragment screening (Hsp90 [3]): weak ADP-competitive binders

- binding to Hsp90 in LLS competition screening of mixtures (Hsp90 ATP binding site): nonbinding
SMILES: N[C@@H](Cc1ccc(O)cc1)C(=O)O [tyrosine]
